This assay concerns the target T1, large-conductance Ca2+-activated K+ (BKCa) channel (IK(Ca)) (Rattus norvegicus, UniProt Q62976).
T1 construct: gene Kcnma1; native channel in GH3 pituitary cells
Briefly: whole-cell patch clamp of IK(Ca), concentration-response; reversed by verruculogen. Format: cell-based.

The values that follow come from PMC6981816, “Characterization of Effectiveness in Concerted Ih Inhibition and IK(Ca) Stimulation by Pterostilbene (Trans-3,5-dimethoxy-4′-hydroxystilbene), a Stilbenoid” (International Journal of Molecular Sciences, 2020).

T1 sequence (Q62976 whole entry): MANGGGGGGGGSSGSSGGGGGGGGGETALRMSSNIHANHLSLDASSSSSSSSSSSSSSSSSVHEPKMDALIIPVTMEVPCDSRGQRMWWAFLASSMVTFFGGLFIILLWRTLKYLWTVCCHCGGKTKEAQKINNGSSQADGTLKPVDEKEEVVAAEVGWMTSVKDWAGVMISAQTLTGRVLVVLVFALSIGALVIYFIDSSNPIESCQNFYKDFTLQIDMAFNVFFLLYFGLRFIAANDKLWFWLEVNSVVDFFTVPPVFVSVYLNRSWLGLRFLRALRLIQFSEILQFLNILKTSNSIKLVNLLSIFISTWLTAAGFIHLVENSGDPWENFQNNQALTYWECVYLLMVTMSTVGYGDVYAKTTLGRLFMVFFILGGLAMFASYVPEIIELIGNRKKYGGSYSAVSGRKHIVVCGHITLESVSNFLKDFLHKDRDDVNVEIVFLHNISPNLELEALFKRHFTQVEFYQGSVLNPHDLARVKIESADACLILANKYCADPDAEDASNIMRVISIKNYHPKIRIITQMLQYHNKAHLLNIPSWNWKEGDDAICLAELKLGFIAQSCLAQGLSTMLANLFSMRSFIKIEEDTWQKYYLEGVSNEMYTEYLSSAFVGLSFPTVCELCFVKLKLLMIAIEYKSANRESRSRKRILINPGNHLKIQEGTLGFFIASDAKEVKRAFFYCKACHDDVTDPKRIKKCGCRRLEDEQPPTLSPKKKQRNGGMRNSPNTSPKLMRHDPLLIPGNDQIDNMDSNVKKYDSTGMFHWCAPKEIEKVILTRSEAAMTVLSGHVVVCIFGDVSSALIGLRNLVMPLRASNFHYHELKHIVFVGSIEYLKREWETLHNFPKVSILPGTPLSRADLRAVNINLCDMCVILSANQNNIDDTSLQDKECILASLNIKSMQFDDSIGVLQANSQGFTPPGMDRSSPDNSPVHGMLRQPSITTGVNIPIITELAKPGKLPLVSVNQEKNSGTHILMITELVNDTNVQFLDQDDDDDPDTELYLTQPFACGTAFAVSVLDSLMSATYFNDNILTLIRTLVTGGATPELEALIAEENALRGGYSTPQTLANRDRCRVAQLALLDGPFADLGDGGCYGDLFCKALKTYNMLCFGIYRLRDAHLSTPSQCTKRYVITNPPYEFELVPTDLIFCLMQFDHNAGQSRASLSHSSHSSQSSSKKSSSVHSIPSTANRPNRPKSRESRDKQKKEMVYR

In turn, `COc1cc(/C=C/c2ccc(O)cc2)cc(OC)c1` [PTER, trans-3,5-dimethoxy-4′-hydroxystilbene] yielded an EC50 of 2230 nM.

One may read the EC50 as the concentration needed to bring the measured effect to its halfway point. Read a high EC50 as weaker potency.
